# Test results reported in patent US4882327A, “Certain heterocyclic N-substituted carboxamides” (Beecham Group p.l.c., priority 1987, dated 1989).
# Where a name gives a salt, the structure may show the parent alone.
# System: von Bezold-Jarisch reflex evoked by 5-HT
# Experiment: Antagonism of the von Bezold-Jarisch reflex evoked by 5-HT in the anesthetized rat
# Type: in vivo
# Settings: iv, urethane-anesthetized male rats, submaximal 5-HT (usually 6 μg/kg i.v.), heart rate changes, read-out: ED50 (dose required to reduce the 5-HT-evoked response to 50% of the control response)
# Procedure: Antagonism of the von Bezold-Jarisch reflex
# The compounds were evaluated for antagonism of the von Bezold-Jarisch reflex evoked by 5-HT in the anesthetized rat according to the following method
# Male rats 250-350 g, were anesthetized with urethane (1.25 g/kg intraperitoneally) and blood pressure and heart rate recorded as described by Fozard J. R. et al., J. Cardiovasc Pharmacol 2, 229-245 (1980). A submaximal dose of 5-HT (usually 6 μg/kg) was given repeatedly by the intravenous route and changes in heart rate quantified Compounds were given intravenously and the concentration required to reduce the 5-HT-evoked response to 50% of the control response (ED50) was then determined.
row,Structure (SMILES),ED50 [µg/kg]
1,"CCc1cc(C(=O)NC2CC3CCC(C2)N3C)c2ccccn12 (stereo not drawn) [Compound 2, (endo)-N-(8-Methyl-8-azabicyclo[3.2.1]oct-3-yl)-3-ethylindolizin-1-carboxamide]",0.24
2,CCc1nc(C(=O)NC2CC3CCCC(C2)N3C)c2ccccn12 (centres unmarked) [Compound 8],0.5
3,"CCc1nc(C(=O)NC2CC3CCC(C2)N3C)c2ccccn12 (stereo not drawn) [Compound 9, (endo)-N-(8-Methyl-8-azabicyclo[3,2,1]oct-3-yl)-3ethylimidazo[1,5-a]plyridin-1-carboxamide]",1
4,"CN1C2CCC1CC(NC(=O)C1=CC(C)(C)c3ccccc31)C2 (stereo not drawn) [Compound 13, (endo)-N-(8-Methyl-8-azabicyclo[3.2.11]octan-3-yl)-3,3-dimethylindene-1-carboxamide monohydrochloride]",1.1
5,"CN1C2CCC1CC(NC(=O)c1ccc3cccccc1-3)C2 (stereo not drawn) [Compound 17, (endo)-N-(8-Methyl-8-azabicyclo[3.2.1]octan-3-yl)azulene-1-carboxamide]",13
